Test results reported in patent US7253286B2, “Nitrogen-containing aromatic derivatives” (Eisai Co., Ltd, priority 2000, dated 2007).

Legend:
[1] = system: Human Umbilical Vein Endothelial Cells (HUVECs); assay: Inhibition against sandwich tube formation by vascular endothelial cells in response to stimulation by VEGF; assay type: cell-based; settings: HUVEC in collagen gel sandwich, stimulation by VEGF (25 ng/ml VEGF and 10 ng/ml EGF), 4th day, total tube length, read-out: IC50 (concentration required for 50% inhibition of tube formation)
In short: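 HUVECs were sandwiched between collagen gel layers in serum-free medium with 25 ng/ml VEGF plus 10 ng/ml EGF, with test substance added above the gel at 37 °C. On day 4 tubes were MTT-stained and total tube length measured by image analysis. IC50 is the concentration halving tube length relative to no-compound wells.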

[2] = system: Human Umbilical Vein Endothelial Cells (HUVECs); assay: Inhibition against invasive tube formation by vascular endothelial cells in response to stimulation by angiogenic factor mixture; assay type: cell-based; set-up: key: the number of tubes formed in the absence of the test substance was designated as +++; scored on the 5-level scale of +++, ++, +, +/−, −; scored on the 5-level scale of +++, ++, +, +/−, −; scored on the 5-level scale of +++, ++, +, +/−, −; − was assigned if absolutely no tubes formed; settings: HUVEC on fibrin gel, EGF/FGF2/VEGF/HGF/TNF-α mixture, 6th day, MTT staining; for number of tubes formed in the fibrin gel (score) at 0.01 μM: test substance 0.01 μM; for number of tubes formed in the fibrin gel (score) at 0.1 μM: test substance 0.1 μM; for number of tubes formed in the fibrin gel (score) at 1.0 μM: test substance 1.0 μM
Description: Inhibition Against Invasive Tube Formation by Vascular Endothelial Cells in Response to Stimulation by Angiogenic Factor Mixture
Human Umbilical Vein Endothelial Cells (HUVECs) were isolated according to a reported method (Shinseikagaku Jikken Koza [New Biochemistry Experiment Lectures], “Saibo Baiyo Gijutsu” [Cell Culturing Techniques], p.197–202), and were cultured in a 5% CO2 incubator (37° C.) using EGM-2 medium (purchased from Clonetics Corp.) until the cells reached confluency. After adding 0.4 ml of bovine fibrinogen (purchased from Sigma Co.) to the inner well of a Transwell culturing plate (purchased from Coster Inc.), it was hardened with 0.7 units/ml of thrombin (purchased from Sigma Co.). The HUVECs were recovered using trypsin-EDTA and then suspended in human endothelial serum free medium basal growth medium (hereinafter abbreviated as SFM, purchased from GIBCO BRL), and 0.4 ml of the cell suspension (1.4×10^5 cells) was seeded onto the hardened fibrin gel and cultured for approximately 4 hours in a 5% CO2 incubator (37° C.). After 4 hours, there was added to the outer chamber of the Transwell 1.5 ml of an SFM solution containing a mixture of angiogenic factors {10 ng/ml EGF (purchased from GIBCO BRL), 30 ng/ml FGF2 (purchased from GIBCO BRL), 75 ng/ml VEGF (purchased from Wako Pure Chemical Industries Co., Ltd.), 50 ng/ml HGF (purchased from R&D Co.) and 7.5 ng/ml TNF-α (purchased from Genzyme Corp.) [The concentrations of the angiogenic factors differed slightly according to the HUVEC lot.]} and a diluted test substance, and culturing was carried out in a 5% CO2 incubator (37° C.). On the 2nd and 4th days after adding the test substance, the medium was exchanged with 1.5 ml of freshly prepared SFM solution containing the angiogenic factor mixture and test substance. Upon aspirating off the culture supernatant in the inner well on the 6th day after the initial addition of the test substance, 0.4 ml of a 3.3 mg/ml MTT solution dissolved in PBS (purchased from Sigma Corp.) was added and culturing was performed for approximately 1 hour in a 5% CO2 incubator (37° C.). The number of tubes formed in the fibrin gel stained with MTT was scored based on microscope observation. Specifically, the number of tubes formed in the absence of the test substance was designated as +++, while − was assigned if absolutely no tubes formed. The number of tubes formed in the presence of the test substance was scored on the 5-level scale of +++, ++, +, +/−, − to evaluate the strength of inhibition of the test substance.

| Compound | IC50 [1] | number of tubes formed in the fibrin gel (score) at 0.01 μM [2] | number of tubes formed in the fibrin gel (score) at 0.1 μM [2] | number of tubes formed in the fibrin gel (score) at 1.0 μM [2] |
| --- | --- | --- | --- | --- |
| COc1cc2nccc(Oc3ccc(NC(=O)NC4CC4)c(Cl)c3)c2cc1C(=O)NCCS(C)(=O)=O [Example 404, N6-(2-(Methylsulfonyl)ethyl)-4-(3-chloro-4-(((cyclopropylamino)carbonyl)amino)phenoxy)-7-methoxy-6-quinolinecarboxamide] | 2.8 nM | − | − | − |
| NC(=O)c1cc2c(Oc3ccc(NC(=O)NC4CC4)c(F)c3)ccnc2cc1OCCCN1CCOCC1 [Example 374, 4-(4-(Cyclopropylaminocarbonyl)amino-3-fluorophenoxy)-7-(3-(4-morpholino)propoxy)-6-quinolinecarboxamide] | 3 nM | +/− | − | − |
| CCNC(=O)n1ccc2cc(Oc3ccnc4cc(OC)c(C(N)=O)cc34)ccc21 [Example 316, 6-Carbamoyl-4-(1-ethylcarbamoyl-1H-indol-5-yloxy)-7-methoxyquinoline] | 1 nM | +/− | − | − |
| N#CCCCOc1cc2nccc(Oc3ccc(NC(=O)Nc4ccc(F)cc4F)c(F)c3)c2cc1C#N [Example 55, N-(4-(6-Cyano-7-(3-cyanopropoxy)-4-quinolyl)oxy-2-fluorophenyl)-N′-(2,4-difluorophenyl)urea] | 35 nM | +++ | +/− | +/− |
| COCCOc1cc2nccc(Oc3ccc(NC(=O)Nc4ccc(F)cc4)c(F)c3)c2cc1C#N [Example 100, N-(4-(6-Cyano-7-(2-methoxyethoxy)-4-quinolyl)oxy-2-fluorophenyl)-N′-(4-fluorophenyl)urea] | 6.3 nM | ++ | +/− | +/− |
